Values after ≈ are worked out from the molar mass of the structure shown. Like-named read-outs stand apart in the source and are kept apart here.
Legend:
Type in all cases: cell-based
Fusarium graminearum = experiment: microbe, parasite or virus in culture; details: Fusarium graminearum, 72 h, read-out: Independent MIC
Botrytis cinerea 10-1728 = experiment: Broth microdilution MIC of individual antifungals; details: Botrytis cinerea 10-1728, individual antifungal, 25% PDB, about 25° C., 72 hours, range over N independent triplicate studies; for MIC: 101728, read-out: Independent MIC
Aspergillus niger = experiment: Broth microdilution MIC of individual antifungals; details: read-out: Independent MIC
Sclerotinia homoeocarpa = experiment: Broth microdilution MIC of individual antifungals; details: Sclerotinia homoeocarpa, individual antifungal, 25% PDB, about 25° C., 72 hours, range over N independent triplicate studies; for MIC: Clarireedia homoeocarpa, read-out: Independent MIC
Magnaporthe grisea = experiment: microbe, parasite or virus in culture; details: Pyricularia oryzae, 72 h, read-out: Independent MIC
Mucor sp. = experiment: Broth microdilution MIC of individual antifungals; details: individual antifungal, 25% PDB, about 25° C., 72 hours, range over N independent triplicate studies
Phytophthora pini = experiment: Broth microdilution MIC of individual antifungals; details: individual antifungal, 25% PDB, about 25° C., 72 hours, range over N independent triplicate studies
[1] = test system: Mycosphaerella zeae-maydis; experiment: Broth microdilution MIC of individual antifungals; details: Didymella maydis, individual antifungal, 25% PDB, about 25° C., 72 hours, range over N independent triplicate studies
Fusarium verticillioides = experiment: Broth microdilution MIC of individual antifungals; details: individual antifungal, 25% PDB, about 25° C., 72 hours, range over N independent triplicate studies, read-out: Independent MIC
Aspergillus fumigatus = experiment: Broth microdilution MIC of individual antifungals; details: individual antifungal, 25% PDB, about 25° C., 72 hours, range over N independent triplicate studies, read-out: Independent MIC
Aspergillus flavus = experiment: Broth microdilution MIC of individual antifungals; details: individual antifungal, 25% PDB, about 25° C., 72 hours, range over N independent triplicate studies, read-out: Independent MIC
Alternaria solani = experiment: Broth microdilution MIC of individual antifungals; details: individual antifungal, 25% PDB, about 25° C., 72 hours, range over N independent triplicate studies; for MIC: read-out: Independent MIC
[2] = test system: Colletotrichum orbiculare; experiment: Broth microdilution MIC of individual antifungals; details: read-out: Independent MIC
Penicillium chrysogenum = experiment: Broth microdilution MIC of individual antifungals; details: read-out: Independent MIC
Candida albicans = experiment: Broth microdilution MIC of individual antifungals; details: individual antifungal, 25% PDB, about 25° C., 72 hours, range over N independent triplicate studies, read-out: Independent MIC
Rhizoctonia solani = experiment: Broth microdilution MIC of individual antifungals; details: individual antifungal, 25% PDB, about 25° C., 72 hours, range over N independent triplicate studies, read-out: Independent MIC
Rhizopus sp. = experiment: Broth microdilution MIC of individual antifungals; details: Rhizopus, 72 h, read-out: Independent MIC
Aureobasidium pullulans = experiment: Broth microdilution MIC of individual antifungals; details: 72 h, read-out: Independent MIC
Botrytis cinerea B17 = experiment: Broth microdilution MIC of individual antifungals; details: Botrytis cinerea, B17, 72 h, read-out: Independent MIC
Stachybotrys chartarum = experiment: Broth microdilution MIC of individual antifungals; details: 72 h, read-out: Independent MIC
[3] = individual antifungal, 25% PDB, about 25° C., 72 hours, range over N independent triplicate studies
[4] = Rhizopus sp., individual antifungal, 25% PDB, about 25° C., 72 hours, range over N independent triplicate studies

OB1OCc2ccccc21 [BO, 2-(hydroxymethyl)benzene boronic acid hemiester]
MIC (Fusarium graminearum): 2 to 4 mg/L (≈ 14.9 to 29.9 µM)

O=C(Nc1ccccc1-c1ccc(Cl)cc1)c1cccnc1Cl [Boscalid, boscalid]
MIC (Botrytis cinerea 10-1728): 3.12 to 6.25 mg/L | MIC (Aspergillus niger; [3]): 0.39 to 0.5 mg/L | MIC (Sclerotinia homoeocarpa): 0.8 mg/L

CCCCc1c(C)nc(NCC)nc1OS(=O)(=O)N(C)C [Bupirimate]
MIC (Magnaporthe grisea): 50 mg/L (≈ 158 µM) | MIC (Mucor sp.): 100 mg/L | MIC (Botrytis cinerea 10-1728): 100 mg/L | MIC (Phytophthora pini): 50 mg/L | MIC (Sclerotinia homoeocarpa): 50 to 100 mg/L

COC(=O)Nc1nc2ccccc2[nH]1 [Carbendazim, carbendazim]
MIC (Magnaporthe grisea): 0.39 to 0.78 mg/L (≈ 2.04 to 4.08 µM) | MIC [1]: 1.56 to 2 mg/L | MIC (Fusarium verticillioides): 3.12 to 4 mg/L | MIC (Aspergillus fumigatus): 1.56 to 3.12 mg/L | MIC (Aspergillus flavus): 0.78 to 3.12 mg/L | MIC (Fusarium graminearum): 1.56 mg/L (≈ 8.16 µM) | MIC (Aspergillus niger; 72 h): 1 to 1.56 mg/L | MIC (Sclerotinia homoeocarpa): 0.05 to 0.1 mg/L

Cc1cc(C2CC2)nc(Nc2ccccc2)n1 [Cyprodinil, cyprodinil]
MIC [1]: 1.56 mg/L | MIC (Mucor sp.): 50 mg/L | MIC (Alternaria solani): 100 mg/L | MIC (Fusarium verticillioides): 100 to 200 mg/L | MIC (Botrytis cinerea 10-1728): 50 to 100 mg/L | MIC (Aspergillus flavus): 0.75 to 1.56 mg/L | MIC [2, 3]: 100 to 200 mg/L | MIC (Fusarium graminearum): 200 mg/L (≈ 888 µM) | MIC (Aspergillus niger; [3]): 3.12 mg/L | MIC (Penicillium chrysogenum; [3]): 0.025 to 0.048 mg/L | MIC (Candida albicans): 50 mg/L | MIC (Sclerotinia homoeocarpa): 0.39 mg/L

CCOc1ccc(NC(=O)OC(C)C)cc1OCC [Diethofencarb, diethofencarb]
MIC (Mucor sp.): 100 to 200 mg/L | MIC (Botrytis cinerea 10-1728): 1.5 to 1.56 mg/L | MIC (Sclerotinia homoeocarpa): 100 to 200 mg/L

COc1ccc(C(=CC(=O)N2CCOCC2)c2ccc(Cl)cc2)cc1OC [Dimethomorph, dimethomorph]
MIC (Mucor sp.): 200 to 400 mg/L | MIC (Botrytis cinerea 10-1728): 100 to 200 mg/L

CCCCc1c(C)nc(NCC)[nH]c1=O [Ethirimol, ethirimol]
MIC [1]: 400 mg/L | MIC (Botrytis cinerea 10-1728): 200 to 400 mg/L | MIC (Phytophthora pini): 200 mg/L | MIC (Sclerotinia homoeocarpa): 200 mg/L

CSC1=N[C@@](C)(c2ccccc2)C(=O)N1Nc1ccccc1 [Fenamidone, fenamidone]
MIC [1]: 50 to 200 mg/L | MIC (Mucor sp.): 50 to 200 mg/L | MIC (Alternaria solani): 100 to 200 mg/L | MIC (Botrytis cinerea 10-1728): 100 mg/L | MIC (Sclerotinia homoeocarpa): 100 to 200 mg/L

CC(Oc1ccc(Cl)cc1Cl)C(=O)NC(C)(C#N)C(C)C (stereo not shown) [Fenoxanil, fenoxanil]
Independent MIC (Mucor sp.): (50-100) μg/mL | Independent MIC (Alternaria solani): 200 mg/L | Independent MIC (Botrytis cinerea 10-1728): (100-200) μg/mL | Independent MIC (Sclerotinia homoeocarpa): 200 mg/L

O=[N+]([O-])c1cc(C(F)(F)F)c(Cl)c([N+](=O)[O-])c1Nc1ncc(C(F)(F)F)cc1Cl [Fluazinam, fluazinam]
MIC [1]: 1 to 1.56 mg/L | MIC (Mucor sp.): 0.78 to 1 mg/L | MIC (Alternaria solani): 0.5 to 0.78 mg/L | MIC (Fusarium verticillioides): 12.5 mg/L | MIC (Botrytis cinerea 10-1728): 1 to 1.56 mg/L | MIC (Phytophthora pini): 3.12 mg/L | MIC (Rhizoctonia solani): 6.25 to 25 mg/L | MIC (Aspergillus niger; [3]): 3.12 mg/L | MIC (Rhizopus sp.; [4]): 0.2 to 0.78 mg/L | MIC (Sclerotinia homoeocarpa): 3.12 to 6.25 mg/L

N#Cc1c[nH]cc1-c1cccc2c1OC(F)(F)O2 [Fludioxonil, fludioxonil]
MIC (Magnaporthe grisea): 0.16 to 0.31 mg/L (≈ 0.645 to 1.25 µM) | MIC [1]: 2 mg/L | MIC (Aureobasidium pullulans): 3 to 3.12 mg/L | MIC (Botrytis cinerea B17): 0.5 mg/L | MIC (Botrytis cinerea 10-1728): 0.5 to 0.78 mg/L | MIC (Aspergillus fumigatus): 0.25 to 1 mg/L | MIC ([2]; 72 h): 0.195 to 0.39 mg/L | MIC (Fusarium graminearum): 50 mg/L (≈ 201 µM) | MIC (Phytophthora pini): 200 mg/L | MIC (Stachybotrys chartarum): 2 mg/L | MIC (Rhizopus sp.): 50 to 80 mg/L | MIC (Penicillium chrysogenum; 72 h): 0.012 to 0.048 mg/L | MIC (Sclerotinia homoeocarpa): 0.125 to 0.25 mg/L

O=C(NCCc1ncc(C(F)(F)F)cc1Cl)c1ccccc1C(F)(F)F [Fluopyram, fluopyram]
MIC (Mucor sp.): 200 mg/L | MIC (Botrytis cinerea 10-1728): 1.56 to 4 mg/L | MIC (Aspergillus fumigatus): 3.12 to 6.25 mg/L | MIC (Aspergillus flavus): 200 mg/L | MIC (Aspergillus niger; [3]): 0.78 to 1.56 mg/L | MIC (Rhizopus sp.; [4]): 200 mg/L | MIC (Penicillium chrysogenum; [3]): 0.1 to 0.4 mg/L | MIC (Sclerotinia homoeocarpa): 0.78 to 3.12 mg/L

CC(C)Oc1cccc(NC(=O)c2ccccc2C(F)(F)F)c1 [Flutolanil, flutolanil]
MIC (Botrytis cinerea 10-1728): 400 mg/L

— patent publication US9737075B2, “Synergistic benzoxaborole-containing anti-fungicidal composition” (The Penn State Research Foundation, priority 2015, dated 2017)
